Results: US20150239889A1, “PYRAZOLOPYRIMIDINE COMPOUND” (MITSUBISHI TANABE PHARMA CORPORATION, priority 2012, published 2015)

Columns and labels:
[1] = molecular target: T1, human HIF-PHD2 (Homo sapiens, UniProt Q9GZT9); assay: HIF-PHD inhibition assay (fluorescence polarization), human HIF-PHD2; type: biochemical; details: 2-oxoglutaric acid 3.33 μmol/L
T1 construct: purchased CrystalGenomics Ltd
How it was run: (§1)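 FP readout; enzyme activity = mP post-enzyme − mP pre-enzyme. FAM-labelled probe, ACA spacer.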

[2] = molecular target: T2, human HIF-PHD3 (Homo sapiens, UniProt Q9H6Z9); assay: HIF-PHD inhibition assay (fluorescence polarization), human HIF-PHD3; type: biochemical; details: 2-oxoglutaric acid 166 μmol/L
T2 construct: purchased CrystalGenomics Ltd
T2 sequence (Q9H6Z9 whole entry): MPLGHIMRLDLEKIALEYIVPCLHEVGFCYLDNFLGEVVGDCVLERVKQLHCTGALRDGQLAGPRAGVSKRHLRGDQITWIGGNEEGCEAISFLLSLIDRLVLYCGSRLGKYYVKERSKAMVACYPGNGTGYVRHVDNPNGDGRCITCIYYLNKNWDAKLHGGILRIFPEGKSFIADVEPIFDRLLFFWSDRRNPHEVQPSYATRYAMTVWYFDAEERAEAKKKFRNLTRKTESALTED
How it was run: as §1

[3] = system: Hep3B cells; assay: EPO production assay (ELISA of culture supernatant); type: cell-based; details: Homo sapiens, 3 μmol/L test compound, 48 hours, relative to control (0.1% DMSO), read-out: EPO production stimulation rate with 3 μmol/L test compound
How it was run: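 Values are fold EPO production at 3 μmol/L compound relative to untreated control, quantified by ELISA of culture supernatant. Hep3B cells were exposed for 48 h in MEM containing 0.5% FBS and 0.1% DMSO.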

T1 sequence (Q9GZT9 2-426 limits assumed): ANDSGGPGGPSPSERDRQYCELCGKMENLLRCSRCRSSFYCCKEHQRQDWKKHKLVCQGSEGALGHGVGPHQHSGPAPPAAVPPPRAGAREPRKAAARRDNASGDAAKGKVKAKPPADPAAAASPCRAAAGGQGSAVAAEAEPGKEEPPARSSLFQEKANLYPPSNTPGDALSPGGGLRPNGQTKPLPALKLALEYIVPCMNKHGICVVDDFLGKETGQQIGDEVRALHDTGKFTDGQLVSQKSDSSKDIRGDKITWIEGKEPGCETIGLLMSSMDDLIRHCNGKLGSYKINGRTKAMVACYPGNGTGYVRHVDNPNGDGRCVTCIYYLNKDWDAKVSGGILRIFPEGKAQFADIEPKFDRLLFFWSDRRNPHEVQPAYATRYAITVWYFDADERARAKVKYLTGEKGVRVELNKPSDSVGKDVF

SMILES | IC50 [1] [nM] | IC50 [2] [nM] | fold induction at 3 µM [3]
O=C(O)c1cnn(-c2nc(O)c3c(cnn3CCCOc3ccc(C(F)(F)F)cc3Cl)n2)c1 [Example 176] | 19 | 170 | 22
Cc1cc(Cn2ncc3nc(-n4cc(C(=O)O)cn4)nc(O)c32)ccc1-c1ccccc1F [Example 94] | 65 | 300 | 17
Cc1nn([C@@H](C)c2ccc3ccccc3c2)c2c(O)nc(-n3cc(C(=O)O)cn3)nc12 [Example 454] | 30 | 730 | 2.7
CC(C)(C)c1cccc(OCCCn2ncc3nc(-n4cc(C(=O)O)cn4)nc(O)c32)c1 [Example 179] | 45 | 160 | 14
O=C(O)c1cnn(-c2nc(O)c3c(cnn3Cc3ccc(F)c(C(F)(F)F)c3)n2)c1 [Example 12] | 44 | > 3000 | 2.3
O=C(O)c1cnn(-c2nc(O)c3c(cnn3Cc3ccc(-c4cc(C(F)(F)F)ccc4F)nc3)n2)c1 [Example 105] | 12 | 110 | 9.5
O=C(O)c1cnn(-c2nc(O)c3c(cnn3CCCCOc3ccc(F)cc3)n2)c1 [Example 215] | 14 | 290 | 6.7
O=C(O)c1cnn(-c2nc(O)c3c(cnn3CCCOc3cccc4c3CCCC4)n2)c1 [Example 193] | 85 | 190 | 9.8
O=C(O)c1cnn(-c2nc(O)c3nn(Cc4ccc(Cl)cc4F)cc3n2)c1 [Example 244] | 63 | 180 | 1.4
COc1cc(Cn2ncc3nc(-n4cc(C(=O)O)cn4)nc(O)c32)ccc1-c1ccccc1C [Example 98] | 20 | 190 | 8.6
CCC(c1ccc(C(F)(F)F)cc1)n1ncc2nc(-n3cc(C(=O)O)cn3)nc(O)c21 (single isomer, unassigned) [Example 327] | 290 | 1200 | 9.4
Cc1cccc(C)c1-c1ccc(Cn2ncc3nc(-n4cc(C(=O)O)cn4)nc(O)c32)cc1 [Example 68] | 23 | 160 | 9.5
O=C(O)c1cnn(-c2nc(O)c3c(n2)c(F)nn3CC2CCC3(CC2)CC3)c1 [Example 466] | 12 | 240 | 2.6
O=C(O)c1cnn(-c2nc(O)c3c(cnn3C[C@H]3CC[C@H](C(F)(F)F)CC3)n2)c1 [Example 137] | 20 | 260 | 9.8
C[C@@H](c1ccc(C(F)(F)F)cc1)n1nc(Cl)c2nc(-n3cc(C(=O)O)cn3)nc(O)c21 [Example 443] | 16 | 250 | 2.9
Cc1nn(CC2CCCCCC2)c2c(O)nc(-n3cc(C(=O)O)cn3)nc12 [Example 473] | 48 | 1200 | 2
O=C(O)c1cnn(-c2nc(O)c3c(cnn3Cc3ccc(-c4ccccc4F)c(F)c3F)n2)c1 [Example 101] | 15 | 120 | 12
CC(C)[C@H]1CC[C@H](Cn2nc(Cl)c3nc(-n4cc(C(=O)O)cn4)nc(O)c32)CC1 [Example 224] | 11 | 91 | 8.4
Cc1nn([C@@H](C)c2ccc(C(F)(F)F)cc2)c2c(O)nc(-n3cc(C(=O)O)cn3)nc12 [Example 446] | 18 | 480 | 6.3
COc1ccccc1-c1ccc([C@H](C)n2ncc3nc(-n4cc(C(=O)O)cn4)nc(O)c32)cc1 [Example 113] | 5.3 | 85 | 7.5
CC[C@@H](c1ccccc1)n1ncc2nc(-n3cc(C(=O)O)cn3)nc(O)c21 [Example 24] | 44 | 990 | 2.8
